14 compounds from patent US11254651B2, “Histone methyltransferase inhibitors” (GLOBAL BLOOD THERAPEUTICS, INC., priority 2016, dated 2022) can be followed below.

Counter-ions that a name gives are not always drawn.

The assay addresses T1, G9a (Homo sapiens, UniProt Q96KQ7).
T1 sequence (Q96KQ7 1-1210): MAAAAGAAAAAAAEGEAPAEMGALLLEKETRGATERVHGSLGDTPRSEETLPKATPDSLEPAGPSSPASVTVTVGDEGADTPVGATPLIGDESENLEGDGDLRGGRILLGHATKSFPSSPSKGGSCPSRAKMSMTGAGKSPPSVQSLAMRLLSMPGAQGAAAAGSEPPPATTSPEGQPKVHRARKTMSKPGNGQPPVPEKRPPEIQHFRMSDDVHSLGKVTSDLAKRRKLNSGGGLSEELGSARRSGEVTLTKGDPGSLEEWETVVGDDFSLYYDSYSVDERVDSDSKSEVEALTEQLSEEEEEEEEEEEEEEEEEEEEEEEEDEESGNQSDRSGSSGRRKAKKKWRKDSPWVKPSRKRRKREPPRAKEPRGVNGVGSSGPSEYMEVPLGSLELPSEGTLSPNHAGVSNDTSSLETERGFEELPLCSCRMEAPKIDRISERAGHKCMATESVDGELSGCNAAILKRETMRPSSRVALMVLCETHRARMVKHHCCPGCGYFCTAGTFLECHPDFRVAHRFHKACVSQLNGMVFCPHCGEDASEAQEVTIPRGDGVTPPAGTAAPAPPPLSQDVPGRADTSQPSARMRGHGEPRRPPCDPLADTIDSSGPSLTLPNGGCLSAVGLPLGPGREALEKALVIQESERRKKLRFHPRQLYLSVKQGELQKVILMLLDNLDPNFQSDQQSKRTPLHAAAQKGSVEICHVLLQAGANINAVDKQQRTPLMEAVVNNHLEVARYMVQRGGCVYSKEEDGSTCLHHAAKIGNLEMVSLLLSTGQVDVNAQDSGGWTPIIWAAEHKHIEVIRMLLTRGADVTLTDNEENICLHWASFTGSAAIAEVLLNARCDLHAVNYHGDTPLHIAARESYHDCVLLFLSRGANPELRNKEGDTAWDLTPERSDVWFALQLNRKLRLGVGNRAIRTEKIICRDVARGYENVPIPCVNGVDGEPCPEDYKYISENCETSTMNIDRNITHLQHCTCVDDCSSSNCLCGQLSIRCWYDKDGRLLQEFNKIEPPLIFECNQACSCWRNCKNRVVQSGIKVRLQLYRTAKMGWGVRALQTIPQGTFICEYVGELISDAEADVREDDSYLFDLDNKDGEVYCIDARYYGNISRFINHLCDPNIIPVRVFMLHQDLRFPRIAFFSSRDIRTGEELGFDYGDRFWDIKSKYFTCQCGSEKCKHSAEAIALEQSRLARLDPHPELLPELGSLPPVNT
Description: G9a AlphaLISA enzymatic activity assay. To be noted: 0.15 nM G9a, 15 uM S-adenosyl-methionine, 100 nM biotinylated histone 3 peptide (1-21), 1 hour room temperature. It counts as biochemical. An excerpt:
The G9a AlphaLISA assay was used to detect the methyl modifications of a biotinylated histone H3 peptide by the compounds. These modifications are done by the histone methyl transferase activity of the G9a enzyme. The assay consists of reading a chemiluminescent signal at 615 nm; this signal is generated by a laser excitation at 680 nm that transfers a reactive singlet oxygen between the donor beads and acceptor beads. Donor beads are streptavidin conjugated and bind to the biotin on the peptide. Acceptor beads are conjugated with an antibody that recognizes the specific G9a methyl mark on the peptide. If there is a methyl mark on the peptide, the acceptor beads will bind to the peptide. Upon binding, the acceptor beads will be in close proximity (<200 nm) of the donor beads and when the donor beads are excited, the transfer of the oxygen can occur and a strong signal will be generated. If there is no methyl mark, the interaction between beads will not occur and signal will be at background levels.
For the assay, the following buffer was used to set up reactions: 50 mM Tris-HCl pH9, 50 mM NaCl, 0.01% Tween-20 and 1 mM DTT (added fresh prior to starting the reactions). The assay is set up by adding a final concentration of 0.15 nM G9a, 15 uM S-adenosyl-methionine and, 100 nM biotinylated histone 3 peptide (1-21). The reaction is incubated at room temperature for 1 hour, and subsequently quenched by the addition of the acceptor beads (anti-H3k9me2 AlphaLISA acceptor beads, PerkinElmer #AL117) at a final concentration of 20 ug/mL. The acceptor beads are incubated for 1 hour. After 1 hour, the donor beads are added at a final concentration of 20 ug/mL (Alpha Streptavidin donor beads, PerkinElmer #6760002). Donor beads are incubated for 0.5 hours. Both donor and acceptor beads are resuspended in AlphaLISA 5X Epigenetics Buffer 1 Kit (PerkinElmer #AL008) prior to addition to the reaction. All manipulations and incubations with the donor and acceptor beads are done in subdued light. Signal is detected in an EnVision plate reader in Alpha mode (see ACS Med Chem Lett. 2014 Jan. 2; 5(2):205-9. doi: 10.1021/m1400496h. eCollection 2014. Discovery and development of potent and selective inhibitors of histone methyltransferase g9a.)
Percent inhibition was calculated for each compound dilution and the concentration that produced 50% inhibition was calculated. This value is presented as the IC50.
A general note: Bead proximity is the source of the signal in Alpha formats.
For `COc1cc2c(NC3CC(OC)C3)c3c(nc2cc1OCCCN1CCCC1)CCC3` (centres unmarked) [Entry 56, 7-methoxy-N-(3-methoxycyclobutyl)-6-[3-(pyrrolidin-1-yl)propoxy]-1H,2H,3H-cyclopenta[b]quinolin-9-amine formate], the concentration for half-maximal inhibition (IC50) came to 16 nM. With `COc1cc2c(N[C@H]3C[C@@H](O)C3)c3c(nc2cc1OCCCN1CCCC1)CCC3` [Entry 57, (1s,3s)-3-({7-methoxy-6-[3-(pyrrolidin-1-yl)propoxy]-1H,2H,3H-cyclopenta[b]quinolin-9-yl}amino)cyclobutan-1-ol formate] the figure was 33.1 nM; with `COc1cc2c(NC3CCC(=O)N(C)C3)c3c(nc2cc1OCCCN1CCCC1)CCC3` (centres unmarked) [Entry 58, 5-({7-methoxy-6-[3-(pyrrolidin-1-yl)propoxy]-1H,2H,3H-cyclopenta[b]quinolin-9-yl}amino)-1-methylpiperidin-2-one trifluoroacetate], 46.4 nM; with `COc1cc2c(NC3CNC(=O)C3)c3c(nc2cc1OCCCN1CCCC1)CCC3` (centres unmarked) [Entry 60, 4-({7-methoxy-6-[3-(pyrrolidin-1-yl)propoxy]-1H,2H,3H-cyclopenta[b]quinolin-9-yl}amino)pyrrolidin-2-one trifluoroacetate], 14.6 nM. To `COc1cc2c(NC(C3CC3)C3CC3)c3c(nc2cc1OCCCN1CCCC1)CCC3` [Entry 65, N-(dicyclopropylmethyl)-7-methoxy-6-[3-(pyrrolidin-1-yl)propoxy]-1H,2H,3H-cyclopenta[b]quinolin-9-amine formate] belongs 7.7 nM; to `COc1cc2c(Nc3ccn(C)n3)c3c(nc2cc1OCCCN1CCCC1)CCC3` [Entry 70, N-{7-methoxy-6-[3-(pyrrolidin-1-yl)propoxy]-1H,2H,3H-cyclopenta[b]quinolin-9-yl}-1-methyl-1H-pyrazol-3-amine formate], 35.8 nM; to `COC(=O)N1CC(CNc2c3c(nc4cc(OCCCN5CCCC5)c(OC)cc24)CCC3)C1` [Entry 71, methyl 3-[({7-methoxy-6-[3-(pyrrolidin-1-yl)propoxy]-1H,2H,3H-cyclopenta[b]quinolin-9-yl}amino)methyl]azetidine-1-carboxylate formate], 17 nM. With `COCCCNc1c2c(nc3cc(OCCCN4CCCC4)c(OC)cc13)CCC2` [Entry 73, 7-methoxy-N-(3-methoxypropyl)-6-[3-(pyrrolidin-1-yl)propoxy]-1H,2H,3H-cyclopenta[b]quinolin-9-amine formate] the figure was 11.2 nM. `COc1cc2c(NC3CC4CCC(C3)O4)c3ccccc3nc2cc1OCCCN1CCCC1` (centres unmarked) [Entry 80, 2-methoxy-N-{8-oxabicyclo[3.2.1]octan-3-yl}-3-[3-(pyrrolidin-1-yl)propoxy]acridin-9-amine formate] came in with a half-maximal inhibitory concentration (IC50) of 65.3 nM. To `COc1cc2c(NC3CC(=O)N(C4CCC4)C3)c3ccccc3nc2cc1OCCCN1CCCC1` (centres unmarked) [Entry 87, 1-cyclobutyl-4-({2-methoxy-3-[3-(pyrrolidin-1-yl)propoxy]acridin-9-yl}amino)pyrrolidin-2-one trifluoroacetate] belongs 18.5 nM; to `COc1cc2c(NCCC#N)c3ccccc3nc2cc1OCCCN1CCCC1` [Entry 98, 3-({2-methoxy-3-[3-(pyrrolidin-1-yl)propoxy]acridin-9-yl}amino)propanenitrile trifluoroacetate], 6.8 nM; to `COc1cc2c(NC3CCC(C)(O)CC3)c3ccccc3nc2cc1OCCCN1CCCC1` [Entry 99, (1R,4R)-4-({2-methoxy-3-[3-(pyrrolidin-1-yl)propoxy]acridin-9-yl}amino)-1-methylcyclohexan-1-ol trifluoroacetate], 17 nM. With `COc1cc2c(NCC(=O)O)c3ccccc3nc2cc1OCCCN1CCCC1` [Entry 104, 2-({2-methoxy-3-[3-(pyrrolidin-1-yl)propoxy]acridin-9-yl}amino)acetic acid formate] the figure was 134 nM. To `COC(=O)CNc1c2ccccc2nc2cc(OCCCN3CCCC3)c(OC)cc12` [Entry 105, methyl 2-({2-methoxy-3-[3-(pyrrolidin-1-yl)propoxy]acridin-9-yl}amino)acetate formate] belongs 20.6 nM.

Broadly, the IC50 is the concentration that gives 50% inhibition.
